Data set [1] concerns rat. Nature of the data set: rat catalepsy test. Format: in vivo. Particulars: for rat catalepsy test result: oral doses of 200 mg/kg. How it is done:
(§1) That dose of Compound No. 7, however, constituted the ALD50 dose for rats. In mice the ALD50 of Compound No. 7 was determined to be 500 mg/kg. of body weight.

The nature of data set [2]: Test IV: spontaneous motor activity, activity cage mouse treated intraperitoneally (CNS depression). The class given is in vivo. As to conditions: in vivo, ip.
From the text: (§3) AED-0.3 (mg/kg. of body weight) activity cage,
(§4) Test IV involves measurement of spontaneous motor activity of mice as a reflection of the CNS depressant or sedative side effects of the test compound. […] The AED-0.3 reflects approximately 50% reduction in spontaneous motor activity.
The subject of data set [3] is fed rat. Nature of the data set: Test II: conditioned avoidance response (CAR), fed rat treated intraperitoneally (psychotropic). The class given is in vivo. As to conditions: for ED50: ip, read-out: CAR-ED50; for activity in the conditioned avoidance response test (Test II): in words. How it is done:
Tests I and II refer to the conditioned avoidance response. Data with respect to Test II were obtained by the method described in the above Wu, et al. patents and publications in which trained rats were maintained on a standard laboratory diet and were treated intraperitoneally with the test drug. Test I is a modification of the same conditioned avoidance response test except that fasted rats were employed and the animals were treated orally.

Data set [4] can be described thus: in vivo. Particulars: mouse, po.
From the text: (§5) AED-0.3 (mg/kg. of body weight) activity cage
as §4
Data set [5] relates to fasted rat. The data set can be described thus: Test I: conditioned avoidance response (CAR), fasted rat treated orally (psychotropic). The class given is in vivo. As to conditions: for ED50: read-out: CAR-ED50.
Method: I. CAR-ED50 (mg/kg. of body weight) fasted rat
Tests I and II refer to the conditioned avoidance response. […] Test I is a modification of the same conditioned avoidance response test except that fasted rats were employed and the animals were treated orally.
Data set [6] has as its system mouse. The data set can be described thus: Test IV: spontaneous motor activity, activity cage mouse treated intraperitoneally (CNS depression). Particulars: in words; mouse. Format: in vivo.
From the text: as §3, §4
Data set [7] deals with T1, alpha-adrenergic receptor (Rattus norvegicus, UniProt P43140).
T1 sequence (P43140 1-466): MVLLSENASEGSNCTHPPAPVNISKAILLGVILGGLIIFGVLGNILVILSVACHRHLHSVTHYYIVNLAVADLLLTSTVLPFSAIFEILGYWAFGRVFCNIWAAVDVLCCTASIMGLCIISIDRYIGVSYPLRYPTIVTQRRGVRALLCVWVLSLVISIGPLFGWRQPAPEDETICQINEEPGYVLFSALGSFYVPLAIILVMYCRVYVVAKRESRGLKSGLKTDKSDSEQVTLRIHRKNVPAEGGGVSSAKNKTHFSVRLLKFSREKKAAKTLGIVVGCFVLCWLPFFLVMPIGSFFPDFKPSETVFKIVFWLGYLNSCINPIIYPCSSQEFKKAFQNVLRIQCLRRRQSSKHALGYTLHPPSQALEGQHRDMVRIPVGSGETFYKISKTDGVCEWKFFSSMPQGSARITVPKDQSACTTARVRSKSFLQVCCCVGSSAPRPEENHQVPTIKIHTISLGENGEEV
The data set can be described thus: Test VII: alpha-adrenergic receptor blocking action in vitro, isolated rat seminal vesicle, 1-norepinephrine as spasmogen.
From the text: (§6) IC50 (mcg/ml) alpha-adrenergic receptor blocking action
(§7) in vitro - rat seminal vesicle - 1-norepinephrine
(§8) Test VII is an in vitro measurement of alpha-adrenergic receptor blocking action employing the isolated seminal vesicle of the rat. […] A low value represents high activity.

Data set [8] deals with alpha-adrenergic receptors in the cerebral cortex. Nature of the data set: Test VI: receptor binding assay, tritiated WB-4101 as ligand (alpha-adrenergic blockade). Particulars: for IC50: Test VI, tritiated WB-4101 as ligand, rat cerebral cortex, in excess of 100 nM is considered inactive. More on the design: species or system rat. An excerpt: (§2) Tests V and VI are receptor binding assays which measure the ability of a compound to prevent the binding of a radiolabeled ligand to specific high affinity sites in brain tissue. According to the state of the art, various ligands have been identified with aspects of CNS function or potential for side effects. The ability of a compound to inhibit labeled ligand binding in vitro is considered to be a reflection of the compound's ability to effect the corresponding CNS function or side effect in vivo.

The nature of data set [9]: Test III: spontaneous motor activity, activity cage mouse treated orally (CNS depression). Particulars: in vivo, po.
From the text: as §5, §4
Data set [10] deals with T1, alpha-adrenergic receptor.
From the text: as §6, §7, §8
The target in data set [11] is T2, dopamine binding, corpus striatum (Rattus norvegicus, UniProt P61169).
T2 construct: The corpus striatum of male Sprague-Dawley rats (Charles River Laboratories) is employed as the test tissue; tissue Charles River Laboratories; host or cells: corpus striatum of male Sprague-Dawley rats
Nature of the data set: Test V: receptor binding assay, tritiated spiperone as ligand, dopamine binding assay (psychotropic). Particulars: tritiated siperone as ligand, Compound 7: average of two determinations.
From the text: V. Receptor binding assay, IC50 in nM, tritiated siperone as
as §2
Test V is a dopamine binding assay which reflects neuroleptic activity (Burt, Creese, and Snyder, Molec. Pharmacol. 12:800 (1976); Burt, Creese, and Snyder, Science 196: 326 (1977); Creese, Burt, and Snyder, Science 192: 481 (1976)). The corpus striatum of male Sprague-Dawley rats (Charles River Laboratories) is employed as the test tissue. The radiolabeled ligand is tritiated spiperone. […] Thus, any value less than 1000 nM in Test V represents potential neuroleptic utility.

Data set [12] is described as follows: ALD50 for rats. As to conditions: rat, in vivo, oral dose of the catalepsy test. How it is done: as §1
A short description of data set [13]: ALD50 in mice. As to conditions: mouse, in vivo. How it is done: as §1
For data set [14], the system named is mouse. Nature of the data set: Test III: spontaneous motor activity, activity cage mouse treated orally (CNS depression). Particulars: in words; for sedative action (Tests III and IV): oral and intraperitoneal.
From the text: as §5, §4
[15] abbreviates: Test II, fed rat, intraperitoneal.
Setting [16] is: Test IV, activity cage mouse, intraperitoneal, reflects approximately 50% reduction in spontaneous motor activity, read-out: AED-0.3.

By IC50 is commonly meant the midpoint of a concentration-inhibition curve. A lower IC50 goes with inhibition by little substance. For orientation: LD50 means the dose expected to kill half of the subjects tested. Low values mean greater toxicity, high ones lower toxicity.

Like-named read-outs stand apart in the source and are kept apart here. A value given as a limit tells only on which side of the number the result lay.

T2 sequence (P61169 whole entry): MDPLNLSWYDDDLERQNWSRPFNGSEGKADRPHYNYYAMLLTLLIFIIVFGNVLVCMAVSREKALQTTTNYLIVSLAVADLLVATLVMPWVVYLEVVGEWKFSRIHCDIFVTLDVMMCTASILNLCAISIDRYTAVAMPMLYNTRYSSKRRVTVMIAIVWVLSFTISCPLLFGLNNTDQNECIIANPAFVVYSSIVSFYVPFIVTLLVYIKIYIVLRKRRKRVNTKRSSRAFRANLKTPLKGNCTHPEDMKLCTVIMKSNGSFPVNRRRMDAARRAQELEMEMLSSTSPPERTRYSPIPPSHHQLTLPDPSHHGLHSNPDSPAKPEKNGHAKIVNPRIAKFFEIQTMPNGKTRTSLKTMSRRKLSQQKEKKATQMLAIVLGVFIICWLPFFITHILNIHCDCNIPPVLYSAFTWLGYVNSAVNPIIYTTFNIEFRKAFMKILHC

In the case of `O=C1CC2(CCCC2)CC(=O)N1CCCCN1CCN(c2ncccn2)CC1` [Compound No. 6, buspirone], in data set [1], the “rat catalepsy test result” value was “inactive”. Moreover, the ED50 came to 33 mg/kg in data set [2] (mouse); 4.3 mg/kg in data set [3] (setting [15]); 92 mg/kg in data set [4]; 48 mg/kg in data set [5] (Test I, fasted rat, oral).

For `COc1cccc(N2CCN(CCCN3C(=O)CC4(CCCC4)CC3=O)CC2)n1` [Compound No. 2], the “activity by intraperitoneal route (Test IV) relative to oral route (Test III)” value in data set [6] is “several-fold stronger activity”. The ED50 in [2] (setting [16]) is 7.4 mg/kg; in [3] (setting [15]), more than 50 mg/kg; in [9], 82 mg/kg. Further, the IC50 in [7] is 182 nM; in [8], 48 nM. In [3] (fed rat, intraperitoneal), the “activity in the conditioned avoidance response test (Test II)” value is listed as “very substantially less active”. For the same molecule, the “alpha-adrenergic blocking agent (Tests VI and VII)” value in [10] is reported as “relatively strong”.

Take `CC1CN(c2ncccc2C#N)CCN1CCCCN1C(=O)CC2(CCCC2)CC1=O` (centres unmarked) [compound 5, 2-[4-[4-(7,9-Dioxo-8-azaspiro[4.5]decan-8-yl)butyl]-3-methyl-1-piperazinyl]pyridine-3-carbonitrile]: the IC50 in data set [11] turned out to be 400 nM. Besides, in data set [5] (Test I, fasted rat, oral), the ED50 came out at 85 mg/kg.

On to `COc1cccnc1N1CCN(CCCCN2C(=O)CC3(CCCC3)CC2=O)CC1` [Compound No. 7], for which the “rat catalepsy test result” value in data set [1] is “inactive”. Also, the half-maximal inhibitory concentration (IC50) in [8] was 65 nM; in data set [11], 100 nM. Further, the LD50 in [12] worked out at 200 mg/kg; in [13] it was 500 mg/kg. In addition, the ED50 in data set [5] (Test I, fasted rat, oral) was 55 mg/kg.

As to `O=C1CC2(CCCC2)CC(=O)N1CCN1CCN(c2ccccn2)CC1` [compound 1], the ED50 amounted to 41 mg/kg in [2] (setting [16]) and 22.6 mg/kg in data set [3] (setting [15]). Moreover, the midpoint of inhibition in data set [7], the IC50, lay at 5830 nM. Besides, the “activity in the conditioned avoidance response test (Test II)” value in [3] (fed rat, intraperitoneal) is listed as “very substantially less active”.

`O=C1CC2(CCCC2)CC(=O)N1CCCCN1CCN(c2ccccn2)CC1` [Compound No. 3]: the “activity by intraperitoneal route (Test IV) relative to oral route (Test III)” value in [6] is “several-fold stronger activity”. Besides, the ED50 in data set [2] (setting [16]) stood at 2.6 mg/kg; in [3] (setting [15]), 2.8 mg/kg; in data set [9] it was 10 mg/kg; in data set [5] (Test I, fasted rat, oral) it was 34 mg/kg. Besides, the 50% inhibitory concentration (IC50) in data set [7] is 871 nM; in data set [8] it was 280 nM. In addition, the “sedative action (Tests III and IV)” value in data set [14] is on record as “high”.

In the case of `CN(C)CCCN1c2ccccc2Sc2ccc(Cl)cc21` [Chlorpromazine, chlorpromazine], in [1], the “ED5 in the rat catalepsy test” value came to 4.1 mg/kg. For the same molecule, the ED50 in [2] (setting [16]) turned out to be 3.6 mg/kg; in [3] (Rattus norvegicus), 4.8 mg/kg; in data set [5] (Rattus norvegicus, po), 39 mg/kg. Moreover, the alpha-adrenergic blocking activity result in data set [7] (in words, rat seminal vesicle) is given as “strong”. In data set [8], this molecule showed an IC50 of 31 nM.

In the case of `N#Cc1cccnc1N1CCN(CCCCN2C(=O)CC3(CCCC3)CC2=O)CC1` [Compound No. 4, 2-[4-[4-(7,9-Dioxo-8-azaspiro[4.5]decan-8-yl)butyl]-1-piperazinyl]pyridine-3-carbonitrile], the “rat catalepsy test result” value in data set [1] is “inactive”. Also, the IC50 in data set [8] came to 360 nM. The “potency in Test VI (alpha-adrenergic blocking action)” value in data set [8] (in words) is reported as “low potency”. Moreover, in data set [14] (oral), the “potency in Test III (sedative action)” value is listed as “low potency”. Also, the “sedative action (Tests III and IV)” value in data set [14] is on record as “lack of sedative action”. Moreover, the ED50 in data set [9] was 97 mg/kg; in data set [5] (Test I, fasted rat, oral) it was 24 mg/kg. The “potency in Test I (neuroleptic action)” value in [5] (in words, fasted rat, oral) is recorded as “good potency”.

For the origin of these results see patent US4305944A, “N-[(4-[3-cyano substituted pyridyl]piperazino)alkyl]-azaspirodecanediones” (priority 1980, dated 1981).
